{"source": "patent US20190167676A1", "about": "“METHODS FOR IMPROVING RESISTANCE TO SKELETAL MUSCLE FATIGUE” (Cytokinetics, Inc., priority 2012, published 2019)", "key": {"[1]": {"tested_on": "extensor digitorum longus (EDL) muscles", "test": "In situ EDL force-frequency in sham and LAD-HF rats", "type": "in vivo, rat", "conditions": "3 mg/kg IV, sham and LAD-HF groups", "protocol": "An in situ assessment of selected animals from Example 12 was run at the end of the study to assess functional characteristics of extensor digitorum longus (EDL) muscles in Sham and LAD animals. Effects with and without Compound C (3 mg/kg IV) were assessed.\nRats were placed under anesthesia and the skin around the experimental leg was removed. The distal end of the extensor digitorum longus (EDL) muscle and its associated tendon were then isolated. The rat was then placed on the platform of an Aurora in situ muscle analysis rig wherein the knee was immobilized and the distal tendon cut and tied to the arm of a force transducer. The muscle was stimulated directly via steel needle electrodes contacting the peroneal nerve. Muscle contractile properties were assessed by applying an electrical current to the nerve and recording the force generated by the muscle via a servomotor. The muscle length was adjusted to produce the maximum isometric force (Lo) after sub-maximal stimulation (30 Hz, 1 ms pulses, 350 ms train duration). Once Lo had been established, the nerve was stimulated every 2 minutes with a 30 Hz train (1 ms stimuli, 350 ms duration) for the course of the experiment.\nOnce the preparation was stable, a force frequency relationship was assessed, then Compound C (3 mg/kg IV) or vehicle was injected and a second force frequency was assessed. […]"}, "[2]": {"test": "Plasma levels at end of rotarod experiment", "type": "in vivo, rat", "conditions": "end of experiment (not at Cmax)", "protocol": "The effect of the fast skeletal muscle troponin activator 1-(2-(((trans)-3-fluoro-1-(3-fluoropyridin-2-yl)cyclobutyl)methylamino)pyrimidin-5-yl)-1H-pyrrole-3-carboxamide (Compound C) on muscle fatigue in healthy rats was determined by a rotarod running time test. […] On the day of the assessment, the animals began by running at an increasing speed from 14-16 RPM over 5 minutes. Rats were then run at a constantly accelerating rate from 12 RPM to 25 RPM over the course of 10 minutes. Time to fall was recorded, with the test being terminated at 600 seconds. The plasma levels were determined at the end of the experiments (not at Cmax). The plasma levels for the indicated doses were determined to be the following: […]"}, "[3]": {"tested_on": "sham and LAD-HF diaphragm strips", "test": "Diaphragm force-frequency by electrical field stimulation in organ bath", "parameters": "species or system rat", "conditions": "30 μM, sham and LAD-HF diaphragms, submaximal frequencies of electrical stimulation", "protocol": "Diaphragm contractile force was measured by electrical field stimulation in an organ bath system based on a standard operating protocol adapted from the Treat NMD website (http://www.treat-nmd.eu/downloads/file/sops/dmd/MDX/DMD M.1.2.002.pdf). The diaphragm and the last floating rib from sham and HF animals were excised, rinsed in physiological saline, and placed in a temperature controlled water-jacketed chamber (26-27° C.) containing Krebs-Henseleit Buffer (118 mM NaCl, 10 mM glucose, 4.6 mM KCl, 1.2 mM KH2PO4, 1.2 mM MgSO4*7 H2O, 24.8 mM NaHCO3, 2.5 mM CaCl2, 50 mg/L tubocurarine, 50 U/L insulin, pH:7.4) that was continuously aerated with 95% O2/[…]. After 10 minutes of equilibration, vertical strips spanning the floating rib to the central tendon were cut from diaphragms. Braided silk sutures were tied at the central tendon and floating rib and attached to a force transducer between two platinum electrodes. Diaphragm strips were set to a length that produced maximum twitch tension (Lo). The force-frequency profile of the muscle was obtained by stimulating the muscle at frequencies between 10-150 Hz (Grass Stimulator, 800 ms train duration, 0.6 ms pulse width). Compound C was suspended in DMSO and directly added into the bath."}, "[4]": {"tested_on": "LAD-HF rats", "test": "Fatiguing rotarod in rat heart failure model", "type": "in vivo", "from_the_text": "To determine the effect of Compound C on skeletal muscle function in patients with heart failure, a rat heart failure model was used. Female Sprague Dawley rats (<250 g) were obtained from Charles River Laboratories having the left anterior descending coronary artery ligated prior to shipping (LAD-HF rats). Sham operated controls were also obtained from the same surgical preparation (sham controls). All rats underwent assessment of cardiac function after a three day acclimation to provide baseline levels. Animals were assessed on weeks 4, 7 and 10 to observe the progress of exercise intolerance at least 3 days after echocardiography. Exercise performance was assessed using the fatiguing rotarod protocol described in Example 11 (5 minute run ramping from 14-16 RPM, followed by run time assessment during a 10 minute ramp from 12 to 25 RPM). LAD-HF rats were selected based on a left ventricular fractional shortening <25% and reduced run time compared to sham controls. […] Decreases in fractional shortening (determined by echocardiography) were apparent.\nAnimals were assigned in a cross-over fashion whereby half of the animals received Compound C (10 mg/kg PO) and half received vehicle (19.3%PEG: 80% (15%) captisol, pH3, 0.2% tween, 0.5% HPMC) via oral gavage 30 minutes prior to rotarod assessment on Day 1 and then the opposite treatment on Day 2."}, "[5]": {"tested_on": "sham and LAD-HF diaphragm fibers", "test": "Skinned diaphragm fiber Ca2+ sensitivity", "parameters": "species or system rat", "conditions": "3 μM", "protocol": "(§1) Muscle tissue for in vitro skinned fiber studies were prepared using an adapted protocol based on Lynch and Faulkner (Am J Physiol 275:C1548-54 (1998)). Briefly, rat muscle from sham and HF animals were rapidly dissected, rinsed in physiological saline, and then incubated in skinning solution (125 mM K-propionate, 20 mM imidazole, 5 mM EGTA, 2 mM MgCl2, 2 mM ATP, pH 7.0) supplemented with 0.5% TritonX-100 (Sigma Chemicals, St. Louis, Mo.) for 30 minutes at 4° C. The buffer was then changed to a storage solution (125 mM K-propionate, 20 mM imidazole, 5 mM EGTA, 2 mM MgCl2, 2 mM ATP, glycerol 50%, pH 7.0) and stored at −20° C. for later use.\n(§2) For skinned fiber analysis, single muscle fibers were dissected from larger segments of tissue in rigor buffer at 4° C. ([…], pH 7.0). They were then suspended between a 400 A force transducer (Aurora Scientific, Ontario, Canada) and a fixed post and secured with 2-4 μl of a 5% solution of methylcellulose in acetone. […] Tension was generated in each fiber by changing fiber buffer over to relax buffer supplemented with 1 mM EGTA and a 15 mM solution of calcium chloride and calculated using the web resource (www.stanford.edu/˜cpatton/webmaxc/webmaxcS.htm). […]"}, "[6]": {"tested_on": "sham and HF EDL fibers", "test": "Skinned EDL fiber force-Ca2+ relationship", "parameters": "species or system rat", "conditions": "3 μM, sham and HF EDL muscle", "protocol": "as §1, §2"}}}
{"smiles": "NC(=O)c1ccn(-c2cnc(NCC3(c4ncccc4F)CC(F)C3)nc2)c1", "note": "(stereo not drawn) [Compound C, 1-(2-(((trans)-3-fluoro-1-(3-fluoropyridin-2-yl)cyclobutyl)methylamino)pyrimidin-5-yl)-1H-pyrrole-3-carboxamide]", "values": [{"measurement": "response to low frequency stimulation", "setting": "[1]", "result": "increased response to low frequency stimulation in both groups"}, {"measurement": "[Plasma]", "setting": "[2]; 0.01 mg/kg", "result": 0.003, "unit": "µM"}, {"measurement": "[Plasma]", "setting": "[2]; 0.03 mg/kg", "result": 0.007, "unit": "µM"}, {"measurement": "[Plasma]", "setting": "[2]; 0.1 mg/kg", "result": 0.024, "unit": "µM"}, {"measurement": "[Plasma]", "setting": "[2]; 0.3 mg/kg", "result": 0.083, "unit": "µM"}, {"measurement": "[Plasma]", "setting": "[2]; 1 mg/kg", "result": 0.204, "unit": "µM"}, {"measurement": "[Plasma]", "setting": "[2]; 3 mg/kg", "result": 0.478, "unit": "µM"}, {"measurement": "[Plasma]", "setting": "[2]; 10 mg/kg", "result": 1.95, "unit": "µM"}, {"measurement": "[Plasma]", "setting": "[2]; 30 mg/kg", "result": 3.64, "unit": "µM"}, {"measurement": "[Plasma]", "setting": "[2]; 100 mg/kg", "result": 28.0, "unit": "µM"}, {"measurement": "diaphragm force", "setting": "[3]", "result": "significantly increased force"}, {"measurement": "increase of rotarod running time compared to vehicle treatment", "setting": "[4]; 10 mg/kg PO", "result": "approximately 2.5 fold"}, {"measurement": "rotarod running time (mean±S.E.)", "setting": "[4]; 10 mg/kg PO 30 minutes prior, vehicle 111±32", "result": "277 ± 32", "unit": "s"}, {"measurement": "Ca2+ sensitivity", "setting": "[5]", "result": "significantly increased Ca^2+ sensitivity"}, {"measurement": "force-Ca2+ relationship", "setting": "[6]", "result": "leftward shift in the force-Ca^2+ relationship"}]}
